Data from patent US8889712B2, “IAP antagonists” (Bristol-Myers Squibb Company, priority 2012, dated 2014).
Structures can show the parent of a compound that is named as a salt. Where two headings read alike, the source gives them in different places.

What was measured:
[1] = target: T1, XIAP BIR3 (Homo sapiens, UniProt P98170); test: XIAP-BIR3/SMAC Homogeneous Time Resolved Fluorescence (HTRF) Assay; assay type: binding
T1 construct: His-BIR3 (241-356, XIAP)
How it was run: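 Competition HTRF between XIAP-BIR3 and SMAC; reaction 60 min at room temperature, then anti-6×His-terbium Fab detection for a further 30 min.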

[2] = target: T2, XIAP BIR2-3 (Homo sapiens, UniProt P98170, C202A/C213G); test: XIAP-BIR2-3 dimeric SMAC Peptide Homogeneous Time Resolved Fluorescence (HTRF) Assay; assay type: binding
T2 construct: His-BIR2-3 (125-356, C202A/C213G, XIAP)
T2 sequence (P98170 125-356 C202A/C213G): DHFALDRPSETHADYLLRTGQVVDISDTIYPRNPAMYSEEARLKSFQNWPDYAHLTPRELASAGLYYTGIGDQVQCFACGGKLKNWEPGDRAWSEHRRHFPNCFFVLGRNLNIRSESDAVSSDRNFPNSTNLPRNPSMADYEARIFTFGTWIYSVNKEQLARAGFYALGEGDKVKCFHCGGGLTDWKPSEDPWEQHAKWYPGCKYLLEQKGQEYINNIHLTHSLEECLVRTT
Description: B. […] Assays were performed in black, flat-bottom, 384-well plates. […] Compounds were dissolved at 3 mM in dimethylsulfoxide (DMSO) and evaluated at eleven serially diluted concentrations. IC50 and Ki values were derived by non-linear regression analysis.

[3] = 1 nM N-His-BIR3 (241-356, XIAP), 5 nM fluorescein labeled SMAC peptide, HTRF signal, read-out: XIAP BIR3 IC50
[4] = 0.5 nM N-His-BIR2-3 (125-356, C202A/C213G, XIAP), 20 nM fluorescein labeled dimeric SMAC peptide, HTRF signal, read-out: XIAP BIR2-3 IC50

T1 sequence (P98170 241-356): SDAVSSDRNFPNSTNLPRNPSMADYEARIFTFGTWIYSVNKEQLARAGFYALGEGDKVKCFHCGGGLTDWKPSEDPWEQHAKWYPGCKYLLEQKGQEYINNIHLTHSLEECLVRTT

| Structure (SMILES) | IC50 [1, 3] [nM] | IC50 [2, 4] [nM] | IC50 [1] [nM] | IC50 [2] [nM] |
| --- | --- | --- | --- | --- |
| CN[C@@H](C)C(=O)N[C@H](C(=O)N1Cc2cc([C@H]3C[C@@H](C(=O)N[C@H](COC)Cc4ccccc4)N(C(=O)[C@@H](NC(=O)[C@H](C)NC)C(C)(C)C)C3)ccc2C[C@H]1C(=O)N[C@H](COC)Cc1ccccc1)C(C)(C)C [Example 84, (S)-2-((S)-3,3-Dimethyl-2-((S)-2-(methylamino)propanamido)butanoyl)-7-((3R,5S)-1-((S)-3,3-dimethyl-2-((S)-2-(methylamino)propanamido)butanoyl)-5-(((S)-1-methoxy-3-phenylpropan-2-yl)carbamoyl)pyrrolidin-3-yl)-N-((S)-1-methoxy-3-phenylpropan-2-yl)-1,2,3,4-tetrahydroisoquinoline-3-carboxamide] | 31.4 | 8.1 | – | – |
| CN[C@@H](C)C(=O)N[C@H](C(=O)N1Cc2cc([C@H]3C[C@@H](C(=O)N[C@@H](Cc4ccccc4)C(=O)OC)N(C(=O)[C@@H](NC(=O)[C@H](C)NC)C(C)(C)C)C3)ccc2C[C@H]1C(=O)N[C@@H](Cc1ccccc1)C(=O)OC)C(C)(C)C [Example 85, (S)-Methyl 2-((2S,4R)-1-((S)-3,3-dimethyl-2-((S)-2-(methylamino)propanamido)butanoyl)-4-((S)-2-((S)-3,3-dimethyl-2-((S)-2-(methylamino)propanamido)butanoyl)-3-(((S)-1-methoxy-1-oxo-3-phenylpropan-2-yl)carbamoyl)-1,2,3,4-tetrahydroisoquinolin-7-yl)pyrrolidine-2-carboxamido)-3-phenylpropanoate] | – | – | 14.8 | 6.2 |
| CN[C@@H](C)C(=O)N[C@H](C(=O)N1Cc2cc([C@H]3C[C@@H](C(=O)N[C@@H](Cc4ccccc4)C(=O)O)N(C(=O)[C@@H](NC(=O)[C@H](C)NC)C(C)(C)C)C3)ccc2C[C@H]1C(=O)N[C@@H](Cc1ccccc1)C(=O)O)C(C)(C)C [Example 86, (S)-2-((S)-7-((3R,5S)-5-(((S)-1-Carboxy-2-phenylethyl)carbamoyl)-1-((S)-3,3-dimethyl-2-((S)-2-(methylamino)propanamido)butanoyl)pyrrolidin-3-yl)-2-((S)-3,3-dimethyl-2-((S)-2-(methylamino)propanamido)butanoyl)-1,2,3,4-tetrahydroisoquinoline-3-carboxamido)-3-phenylpropanoic acid] | 5 | 2.7 | – | – |
| CN[C@@H](C)C(=O)N[C@H](C(=O)N1CC(c2ccc3c(c2)CN(C(=O)[C@@H](NC(=O)[C@H](C)NC)C24CC5CC(CC(C5)C2)C4)[C@H](C(=O)NC2CCCc4ccccc42)C3)C[C@H]1C(=O)NC1CCCc2ccccc21)C(C)(C)C (stereo partly drawn) [Example 87, (S)-2-((S)-2-((3S,5S,7S)-Adamantan-1-yl)-2-((S)-2-(methylamino)propanamido)acetyl)-7-((3R,5S)-1-((S)-3,3-dimethyl-2-((S)-2-(methylamino)propanamido)butanoyl)-5-(((R)-1,2,3,4-tetrahydronaphthalen-1-yl)carbamoyl)pyrrolidin-3-yl)-N—((R)-1,2,3,4-tetrahydronaphthalen-1-yl)-1,2,3,4-tetrahydroisoquinoline-3-carboxamide, 2 TFA] | 7.3 | 5.9 | – | – |
| CN[C@@H](C)C(=O)N[C@H](C(=O)N1C[C@@H](NC(=O)c2ccc3c(c2)CN(C(=O)[C@@H](NC(=O)[C@H](C)NC)C24CC5CC(CC(O)(C5)C2)C4)[C@H](C(=O)NC2CCCc4ccccc42)C3)C[C@H]1C(=O)NC1CCCc2ccccc21)C(C)(C)C (stereo partly drawn) [Example 88, (S)-N^7-((3S,5S)-1-((S)-3,3-dimethyl-2-((S)-2-(methylamino)propanamido)butanoyl)-5-(((R)-1,2,3,4-tetrahydronaphthalen-1-yl)carbamoyl)pyrrolidin-3-yl)-2-((S)-2-((1r,3R,5R,7S)-3-hydroxyadamantan-1-yl)-2-((S)-2-(methylamino)propanamido)acetyl)-N^3-((R)-1,2,3,4-tetrahydronaphthalen-1-yl)-1,2,3,4-tetrahydroisoquinoline-3,7-dicarboxamide] | 9 | 2.6 | – | – |
